Key:
[1] = tested on: non-small cell lung cancer cell line H460; assay: In vitro human cancer cell line cytotoxicity (proliferation) assay in H460, CellTiter-Glo, 72 hours; type: cell-based; conditions: DMSO condition (no AKR1C3 inhibitor), read-out: CTG H460: Avg IC50 (nM) [Assay Condition: DMSO]
Summary of the method: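 IC50s in nM come from CellTiter-Glo viability read after 72 h of compound exposure. Compounds went in from 10 mM DMSO stocks onto H460 cells, which had been plated at 3×10^3 per well and grown 24 h beforehand at 37 °C, 5% CO2.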

[2] = tested on: non-small cell lung cancer cell line H460; assay: H460 proliferation assay in the presence of 3 uM ASP9521 (AKR1C3 specific inhibitor); type: cell-based, human; conditions: H460 cells, CellTiter-Glo, 72 hours, in the presence of 3 uM ASP9521 added 4 hours prior to compounds; read-out: CTG H460: Avg IC50 (nM) [Assay Condition: ASP9521]
Summary of the method: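 AKR1C3 blocked with 3 uM ASP9521 given 4 h ahead of test compounds. H460 cells, plated 24 h earlier, were then treated for 72 h at 37 °C in 5% CO2. CellTiter-Glo luminescence gave viability.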

[3] = Homo sapiens, NCI-H460, 72 h, H460 cells

SMILES | IC50 ([1]; H460 cells) [nM] | IC50 [2] [nM] | IC50 [1, 3] [nM] | IC50 ([1]; Homo sapiens, NCI-H460, H460 cells) [nM]
O=C(c1cccc(Oc2cc3cc(COP(=O)(N4CC4)N4CC4)oc3cc2[N+](=O)[O-])c1)N1CCOCC1 [Example 556] | < 10 | 1060 | – | –
O=[N+]([O-])c1cc2oc(COP(=O)(N3CC3)N3CC3)cc2cc1Oc1cccc(-c2ccccc2)c1 [Example 534] | – | 1200 | < 10 | –
C[C@@H](OP(=O)(N1CC1)N1CC1)c1cc2cc(Oc3cccc(-c4ccccn4)c3)c([N+](=O)[O-])cc2o1 [Example 553] | 10 to 50 | 2950 | – | –
O=[N+]([O-])c1ccc2c(c1Oc1cccc(-n3cncn3)c1)CC[C@@H]2OP(=O)(N1CC1)N1CC1 [Example 435] | – | 482 | < 10 | –
COc1cccc(Oc2c([N+](=O)[O-])ccc3c2CC[C@H]3OP(=O)(N2CC2)N2CC2)c1 [Example 448] | < 10 | 647 | – | –
Cn1c(=O)n(C)c2cc(Oc3c([N+](=O)[O-])ccc4c3CCC4OP(=O)(N3CC3)N3CC3)ccc21 (centres unmarked) [Example 93] | ≥ 100 | 878 | – | –
CN1Cc2ccc(Oc3cc4cc(COP(=O)(N5CC5)N5CC5)oc4cc3[N+](=O)[O-])cc2C1=O [Example 569] | < 10 | 937 | – | –
O=[N+]([O-])c1ccc2c(c1Oc1ccc(-c3cccnc3)cc1)CCC2OP(=O)(N1CC1)N1CC1 (single isomer, unassigned) [Example 54] | < 10 | 516 | – | –
O=[N+]([O-])c1ccc2c(c1Oc1ccc(-c3ccc(Cl)cc3)cc1)CCC2OP(=O)(N1CC1)N1CC1 (centres unmarked) [Example 44] | ≥ 100 | 1940 | – | –
O=[N+]([O-])c1ccc2c(c1Oc1ccc(-c3ccc(F)cc3)cc1)OCCC2OP(=O)(N1CC1)N1CC1 (centres unmarked) [Example 132] | – | 1250 | < 10 | –
Cn1cnc(-c2cccc(Oc3c([N+](=O)[O-])ccc4c3CC[C@@H]4OP(=O)(N3CC3)N3CC3)c2)c1 [Example 345] | – | 2110 | – | < 10
O=C(NC1CC1)c1ccc(Oc2c([N+](=O)[O-])ccc3c2CCC3OP(=O)(N2CC2)N2CC2)cc1 (centres unmarked) [Example 73] | < 10 | 943 | – | –
O=[N+]([O-])c1ccc2c(c1Oc1cccc(OC(F)(F)F)c1)CCC2OP(=O)(N1CC1)N1CC1 (centres unmarked) [Example 124] | – | 547 | < 10 | –
Cn1cccc(-c2ccc(Oc3c([N+](=O)[O-])ccc4c3CCC4OP(=O)(N3CC3)N3CC3)cc2)c1=O (centres unmarked) [Example 48] | ≥ 100 | 1010 | – | –
O=C(NC1CCC1)c1ccc(Oc2cc3c(cc2[N+](=O)[O-])CCC3OP(=O)(N2CC2)N2CC2)cc1 (centres unmarked) [Example 190] | – | 984 | < 10 | –
O=C(c1cccc(Oc2c([N+](=O)[O-])ccc3c2CCC3OP(=O)(N2CC2)N2CC2)c1)N1C[C@H]2CC[C@@H](C1)O2 (some centres unmarked) [Example 250] | < 10 | 1220 | – | –
O=[N+]([O-])c1ccc2c(c1Oc1cccc(OC3COC3)c1)CC[C@H]2OP(=O)(N1CC1)N1CC1 [Example 468] | < 10 | 660 | – | –
Cc1coc(-c2cccc(Oc3c([N+](=O)[O-])ccc4c3CC[C@@H]4OP(=O)(N3CC3)N3CC3)c2)n1 [Example 361] | – | 3910 | 10 to 50 | –
CC(OP(=O)(N1CC1C)N1CC1C)c1ccc([N+](=O)[O-])c(Oc2cccc(C(=O)N(C)C)c2)c1 (centres unmarked) [Example 205] | – | 184 | < 10 | –
O=[N+]([O-])c1ccc2c(c1Oc1ccc(-c3ncccn3)cc1)CCC2OP(=O)(N1CC1)N1CC1 (racemic) [Example 282] | < 10 | 1240 | – | –

SMILES | IC50 ([1]; H460 cells) [nM] | IC50 [2] [nM] | IC50 [1, 3] [nM] | IC50 ([1]; Homo sapiens, NCI-H460, H460 cells) [nM]
CC(C)(C)c1cncc(Oc2c([N+](=O)[O-])ccc3c2CCC3OP(=O)(N2CC2)N2CC2)c1 (centres unmarked) [Example 325] | < 10 | 608 | – | –
Cc1ccnc(-c2ccc(Oc3c([N+](=O)[O-])ccc4c3CCC4OP(=O)(N3CC3)N3CC3)cc2)n1 (racemic) [Example 280] | < 10 | 1300 | – | –
CC(OP(=O)(N1CC1)N1CC1)c1cc2cc(Oc3cccc(C(=O)N(C)C)c3)c([N+](=O)[O-])cc2o1 (single isomer, unassigned) [Example 232] | – | 4110 | 10 to 50 | –
Cn1c(=O)oc2cc(Oc3c([N+](=O)[O-])ccc4c3CCC4OP(=O)(N3CC3)N3CC3)ccc21 (centres unmarked) [Example 121] | – | 33.8 | < 10 | –
O=[N+]([O-])c1cc2c(cc1Oc1ccc(-c3ccccc3)cc1)C(OP(=O)(N1CC1)N1CC1)CC2 (single isomer, unassigned) [Example 152] | – | 1400 | < 10 | –
O=[N+]([O-])c1ccc2c(c1Oc1ccc3ncccc3c1)CC[C@@H]2OP(=O)(N1CC1)N1CC1 [Example 400] | – | 452 | < 10 | –
C[C@@H](OP(=O)(N1CC1)N1CC1)c1cc2cc(Oc3cncc(-c4ccccc4)c3)c([N+](=O)[O-])cc2o1 [Example 567] | < 10 | 2110 | – | –
O=[N+]([O-])c1ccc2c(c1Oc1ccc(F)c(OC3CCCC3)c1)CCC2OP(=O)(N1CC1)N1CC1 (centres unmarked) [Example 476] | < 10 | 1090 | – | –
CS(=O)(=O)c1ccc(Oc2c([N+](=O)[O-])ccc3c2CCC3OP(=O)(N2CC2)N2CC2)cc1 (centres unmarked) [Example 506] | < 10 | 625 | – | –
Cc1cc2cc(Oc3c([N+](=O)[O-])ccc4c3CC[C@H]4OP(=O)(N3CC3)N3CC3)ccc2n1C [Example 391] | – | 1810 | < 10 | –
CC(OP(=O)(N1C[C@H]1C)N1C[C@H]1C)c1ccc([N+](=O)[O-])c(Oc2cccc(C(=O)N(C)C)c2)c1 (some centres unmarked) [Example 212] | < 10 | 958 | – | –
O=[N+]([O-])c1ccc2c(c1Oc1ccc(F)c(S(=O)(=O)C3CC3)c1)CC[C@@H]2OP(=O)(N1CC1)N1CC1 [Example 513] | – | 682 | < 10 | –
O=C(c1cccc(Oc2c([N+](=O)[O-])ccc3c2CCC3OP(=O)(N2CC2)N2CC2)c1)N1CC(F)(F)C1 (centres unmarked) [Example 67] | < 10 | 541 | – | –
CC1CN1P(=O)(OCc1ccc([N+](=O)[O-])c(Oc2cccc(C(=O)N(C)C)c2)c1)N1CC1C (centres unmarked) [Example 206, 3-(3-(dimethylcarbamoyl)phenoxy)-4-nitrobenzyl bis(2-methylaziridin-1-yl)phosphinate] | – | 82.3 | < 10 | –
O=[N+]([O-])c1ccc2c(c1Oc1cccc(OC3CCC3)c1)CCC2OP(=O)(N1CC1)N1CC1 (racemic) [Example 459] | < 10 | 845 | – | –
Cn1cc(-c2ccc(Oc3cc4c(cc3[N+](=O)[O-])CCC4OP(=O)(N3CC3)N3CC3)cc2)cn1 (centres unmarked) [Example 181] | < 10 | 942 | – | –
O=[N+]([O-])c1ccc2c(c1Oc1ccc(-c3ccncc3)cc1)CC[C@H]2OP(=O)(N1CC1)N1CC1 [Example 274] | 10 to 50 | 7430 | – | –
C[C@@H](OP(=O)(N1CC1)N1CC1)c1cc2cc(Oc3cccc(C(=O)N(C)C)c3)c([N+](=O)[O-])cc2o1 [Example 566] | 10 to 50 | 6380 | – | –
O=[N+]([O-])c1ccc2c(c1Oc1cccc(OC(F)F)c1)CCC2OP(=O)(N1CC1)N1CC1 (racemic) [Example 454] | < 10 | 559 | – | –
COc1ccn(Cc2cc(C(C)OP(=O)(N3CC3)N3CC3)ccc2[N+](=O)[O-])c(=O)c1 (single isomer, unassigned) [Example 2] | – | > 10000 | ≥ 100 | –

Source: patent US20260167656A1, “PHOSPHORAMIDATE COMPOUNDS AND USES THEREOF” (ALLORION THERAPEUTICS INC, priority 2022, published 2026)
